Laboratory results reported in ChEMBL document CHEMBL1201862, “PubChem BioAssay data set” (2004).
Calls of active or inactive are those of the source.

What was measured:
[1] = HEK-293T viability loss after treatment – luminescence, T-cell screen hits, cytotoxicity control for TCR NF-kB inhibitor project, dose response (AID 489026); format: functional, cell-based;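 note: cells exposed to compound about 14 hours before the viability readout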
Hexokinase HKDC1 = molecular target: T1, Hexokinase HKDC1 (Homo sapiens, UniProt Q2TB90); assay: inhibition of HKDC1 glucose phosphorylation – biochemical, W721R variant, dose response (AID 504729); format: functional
T1 sequence (Q2TB90 whole entry): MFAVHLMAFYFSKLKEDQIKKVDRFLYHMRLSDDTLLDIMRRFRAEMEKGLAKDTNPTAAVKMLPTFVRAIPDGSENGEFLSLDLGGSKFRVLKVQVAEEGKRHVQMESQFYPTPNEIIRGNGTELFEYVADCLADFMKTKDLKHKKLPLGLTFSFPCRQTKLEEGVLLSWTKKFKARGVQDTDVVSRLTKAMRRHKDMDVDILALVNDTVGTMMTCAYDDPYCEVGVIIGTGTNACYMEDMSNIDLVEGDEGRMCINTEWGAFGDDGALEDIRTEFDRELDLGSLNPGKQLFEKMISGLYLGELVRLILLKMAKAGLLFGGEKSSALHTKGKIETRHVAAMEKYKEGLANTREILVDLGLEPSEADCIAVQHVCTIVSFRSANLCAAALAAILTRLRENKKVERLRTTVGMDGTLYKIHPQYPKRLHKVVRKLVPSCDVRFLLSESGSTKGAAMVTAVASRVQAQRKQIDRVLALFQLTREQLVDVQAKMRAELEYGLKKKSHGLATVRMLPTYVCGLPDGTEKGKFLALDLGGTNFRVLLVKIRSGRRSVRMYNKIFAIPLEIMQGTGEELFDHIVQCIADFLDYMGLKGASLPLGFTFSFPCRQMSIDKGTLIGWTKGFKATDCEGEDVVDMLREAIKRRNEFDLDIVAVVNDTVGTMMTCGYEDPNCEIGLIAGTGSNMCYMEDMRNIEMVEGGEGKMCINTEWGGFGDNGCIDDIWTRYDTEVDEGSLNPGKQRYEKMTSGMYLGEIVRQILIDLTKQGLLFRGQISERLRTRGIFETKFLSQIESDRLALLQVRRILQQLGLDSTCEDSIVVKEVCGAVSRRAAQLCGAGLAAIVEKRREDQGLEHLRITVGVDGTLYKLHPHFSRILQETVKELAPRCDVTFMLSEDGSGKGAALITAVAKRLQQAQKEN

[2] = molecular target: T2, Type-1 angiotensin II receptor (Homo sapiens, UniProt P30556); assay: antagonism of angiotensin II type 1 receptor – cell-based, uHTS hits, selectivity assay for APJ receptor antagonist project, dose response (AID 463214); format: functional;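 note: antagonist potency against angiotensin II stimulated AT1 response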
T2 sequence (P30556 whole entry): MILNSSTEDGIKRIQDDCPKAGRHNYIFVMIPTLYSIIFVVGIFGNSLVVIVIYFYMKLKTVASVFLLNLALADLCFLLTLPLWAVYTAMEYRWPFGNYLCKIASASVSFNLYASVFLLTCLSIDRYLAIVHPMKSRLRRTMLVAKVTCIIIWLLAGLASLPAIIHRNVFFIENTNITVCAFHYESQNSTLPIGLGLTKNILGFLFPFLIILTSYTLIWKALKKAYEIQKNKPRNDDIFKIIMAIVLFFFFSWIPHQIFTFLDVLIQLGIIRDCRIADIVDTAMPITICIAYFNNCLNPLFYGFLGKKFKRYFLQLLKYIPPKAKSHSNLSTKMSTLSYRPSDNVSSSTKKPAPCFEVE

[3] = molecular target: T3, Mannose-6-phosphate isomerase (Homo sapiens, UniProt P34949); assay: MPI inhibition at elevated mannose 6-phosphate – biochemical, fluorescence intensity, high mannose 6-phosphate, primary screen (AID 1220)
T3 sequence (P34949 whole entry): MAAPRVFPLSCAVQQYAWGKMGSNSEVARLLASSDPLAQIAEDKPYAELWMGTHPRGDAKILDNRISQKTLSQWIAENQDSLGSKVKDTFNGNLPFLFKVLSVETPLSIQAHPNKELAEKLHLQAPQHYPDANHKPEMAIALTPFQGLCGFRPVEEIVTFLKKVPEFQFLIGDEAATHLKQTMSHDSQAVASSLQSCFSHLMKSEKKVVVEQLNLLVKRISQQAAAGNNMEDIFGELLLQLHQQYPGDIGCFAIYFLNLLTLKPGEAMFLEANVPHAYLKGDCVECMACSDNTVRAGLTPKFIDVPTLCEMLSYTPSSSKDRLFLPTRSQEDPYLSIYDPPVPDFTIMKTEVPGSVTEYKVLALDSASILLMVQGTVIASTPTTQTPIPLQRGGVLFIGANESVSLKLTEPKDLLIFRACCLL

[4] = molecular target: Potassium voltage-gated channel subfamily KQT member 2 (Rattus norvegicus, UniProt O88943, W236L); assay: potentiation of rat KCNQ2 current – cell-based, automated electrophysiology, mechanism study for KCNQ2 potentiator project, dose response (AID 2603); format: functional
Streptococcus = assay: GAS UMAA2166 growth inhibition – luminescence, BacTiterGlo, counter-screen for streptokinase expression inhibitor project, dose response (AID 1915); format: functional, organism-based;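 note: potency for reduction of bacterial viability or growth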
Streptokinase A = molecular target: T4, Streptokinase A (Streptococcus pyogenes serotype M1, UniProt P10520); assay: viability-normalized secreted streptokinase activity reduction – plasminogen activation absorbance, OD405, dose response (AID 1914); format: functional, Streptococcus pyogenes M1 GAS;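 note: secreted streptokinase activity via plasminogen activation per viability signal from cell pellet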
T4 sequence (P10520 whole entry): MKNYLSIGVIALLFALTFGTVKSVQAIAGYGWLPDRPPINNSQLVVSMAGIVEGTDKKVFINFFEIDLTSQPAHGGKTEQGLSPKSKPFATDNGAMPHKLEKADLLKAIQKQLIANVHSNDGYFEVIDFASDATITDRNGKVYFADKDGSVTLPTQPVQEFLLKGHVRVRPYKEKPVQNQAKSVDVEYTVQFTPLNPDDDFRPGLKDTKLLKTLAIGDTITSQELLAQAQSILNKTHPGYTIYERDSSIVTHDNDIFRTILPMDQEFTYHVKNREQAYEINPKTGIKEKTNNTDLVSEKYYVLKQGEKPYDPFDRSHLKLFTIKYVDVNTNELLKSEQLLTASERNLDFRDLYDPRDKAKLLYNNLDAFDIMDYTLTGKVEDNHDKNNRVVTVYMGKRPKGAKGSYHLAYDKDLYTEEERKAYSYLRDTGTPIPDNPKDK

Sequence of Potassium voltage-gated channel subfamily KQT member 2 (O88943 whole entry W236L): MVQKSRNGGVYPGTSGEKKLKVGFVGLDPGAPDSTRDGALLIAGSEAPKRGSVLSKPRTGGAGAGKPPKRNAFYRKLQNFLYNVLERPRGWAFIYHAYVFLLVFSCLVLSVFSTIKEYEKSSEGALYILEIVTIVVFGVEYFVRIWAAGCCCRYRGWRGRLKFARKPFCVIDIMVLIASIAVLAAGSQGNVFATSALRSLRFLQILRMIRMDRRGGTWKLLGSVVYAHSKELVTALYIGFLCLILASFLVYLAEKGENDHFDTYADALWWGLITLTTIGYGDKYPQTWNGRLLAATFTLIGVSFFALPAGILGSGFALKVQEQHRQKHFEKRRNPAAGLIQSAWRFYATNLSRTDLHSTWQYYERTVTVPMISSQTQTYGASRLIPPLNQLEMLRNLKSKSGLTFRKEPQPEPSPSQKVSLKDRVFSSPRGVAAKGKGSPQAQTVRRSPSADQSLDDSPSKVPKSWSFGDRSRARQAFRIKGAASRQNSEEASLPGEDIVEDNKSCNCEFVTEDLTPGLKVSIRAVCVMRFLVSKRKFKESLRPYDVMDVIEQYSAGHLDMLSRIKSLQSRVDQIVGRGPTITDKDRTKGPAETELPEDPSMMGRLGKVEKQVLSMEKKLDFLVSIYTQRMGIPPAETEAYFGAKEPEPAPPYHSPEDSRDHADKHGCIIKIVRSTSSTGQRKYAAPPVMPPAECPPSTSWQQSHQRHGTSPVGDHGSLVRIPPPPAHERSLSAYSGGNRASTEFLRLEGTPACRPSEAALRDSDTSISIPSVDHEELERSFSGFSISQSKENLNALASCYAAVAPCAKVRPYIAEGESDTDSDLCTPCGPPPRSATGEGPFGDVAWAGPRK

Compound: COC(=O)C[C@]1(C(=O)OC)CN(C#N)N(c2ccc(Cl)cc2)C12c1ccccc1-c1ccccc12
- IC50 [1]: > 80 µM (inactive)
- IC50 (Hexokinase HKDC1): 3.35 µM (active)

Compound: CCCCn1c(NC(=O)c2ccco2)c(C(=O)OCC)c2nc3ccccc3nc21
- IC50 [2]: 10.4 µM (active)
- IC50 [3]: > 50 µM (not active)

Compound: Cc1ccccc1NC1=C/C(=N\S(=O)(=O)c2ccc(C(=O)O)cc2)c2ccccc2C1=O
- EC50 [4]: 9.51 µM (active)
- EC50 (Streptococcus): 5.01 µM (active)
- IC50 (Hexokinase HKDC1): 2.53 µM (active)

Compound: COc1ccc(-c2cc(-c3ccc(C)cc3)[nH]n2)c(O)c1
- EC50 (Streptokinase A): > 150 µM (not active)
- EC50 (Streptococcus): 15.8 µM (active)
